Data from article PMC3958311 (EMBO Molecular Medicine, 2014).
Values after ≈ are worked out from the molar mass of the structure shown. Where two headings read alike, the source gives them in different places.

Key:
in vitro [1] = conditions: mouse, microsomes
[2] = system: M. tuberculosis clinical isolate 7384; experiment: Drug susceptibility testing on solid Löwenstein-Jensen medium; format: cell-based; conditions: Mycobacterium tuberculosis
M. smegmatis mc^2155 = experiment: MIC99 by REMA; format: cell-based, Mycobacterium smegmatis
in vivo = conditions: mouse, in vivo
Protocol: Table S5. Principal pharmacokinetic properties1
1 See Figure S5 for primary data.
Compound levels were measured in serum from individual female mice (3/time point) that had received a single dose of 25 mg/kg. Maximum concentration (Cmax); area under the curve (AUC); apparent clearance.
Comparative pharmacokinetic analysis. After receiving a single dose
(25 mg/kg) of PBTZ169 or BTZ043 by gavage, groups of three female mice were sacrificed at the times indicated, blood was obtained by cardiac puncture and the drug levels in serum determined by LC-MS/MS technique (limit of quantification 10 μg/L).

M. tuberculosis H37Rv [3] = experiment: MIC by resazurin reduction microplate assay (REMA); format: cell-based, Mycobacterium tuberculosis
M. avium ATCC 15769 = experiment: MIC99 by REMA; format: cell-based
M. marinum strain M [4] = format: in vivo, zebrafish (Danio rerio); conditions: zebrafish, in vivo
M. bovis BCG BN2 = format: cell-based, Mycobacterium bovis BCG
zebrafish embryos = format: in vivo, zebrafish (Danio rerio); conditions: zebrafish, in vivo
Protocol: On examination of infected zebrafish embryos treated with BTZ043 it was observed that the compound affected embryo development (Fig 6A–G) especially at concentrations above 25 nM. […] These defects were also observed when uninfected embryos were exposed to BTZ043.
Figure 6 Effect of BTZ043 on M. marinum infected zebrafish embryo development. A–D M. marinum infected zebrafish embryos were treated with BTZ043 for 5 days at the concentrations indicated and photographed using a Leica DFC420C camera. The M strain was used for infection. E–F Images of the notochord from untreated and treated zebrafish, arrows indicate developmental abnormalities. G Analysis of zebrafish embryos displaying developmental abnormalities treated with BTZ043 (BTZ) or PBTZ169 (PBTZ) at the concentrations indicated.

[5] = system: M. tuberculosis clinical isolate 6448; experiment: Drug susceptibility testing on solid Löwenstein-Jensen medium; format: cell-based; conditions: Mycobacterium tuberculosis
[6] = system: M. tuberculosis clinical isolate 6374; experiment: as above; format: cell-based; conditions: Mycobacterium tuberculosis
M. vaccae ATCC 15483 = experiment: MIC99 by REMA; format: cell-based
[7] = system: M. tuberculosis clinical isolate 6412; experiment: Drug susceptibility testing on solid Löwenstein-Jensen medium; format: cell-based; conditions: Mycobacterium tuberculosis
M. tuberculosis H37Rv [8] = experiment: In vitro combination studies, REMA checkerboard; format: cell-based
M. abscessus 2005-0524 = experiment: MIC99 by REMA; format: cell-based
M. smegmatis GM22 = experiment: microbe, parasite or virus in culture; format: cell-based; conditions: for MIC99: M. smegmatis GM22, overproduces NfnB nitroreductase
M. marinum Strain M [9] = experiment: MIC99 by REMA; format: cell-based, Mycobacterium marinum
[10] = target: T1, purified recombinant M. smegmatis NfnB (Mycolicibacterium smegmatis, UniProt A0R6D0); experiment: NfnB-mediated nitroreduction followed by LC-MS; format: biochemical
T1 construct: made in house

M. bovis BCG Pasteur = experiment: microbe, parasite or virus in culture; format: cell-based, Mycobacterium bovis BCG
in vitro [11] = conditions: human, microsomes
M. tuberculosis H37Rv [12] = experiment: Drug susceptibility testing on solid Löwenstein-Jensen medium; format: cell-based; conditions: Mycobacterium tuberculosis, H37RV
[13] = system: M. tuberculosis clinical isolate 5055; experiment: as above; format: cell-based; conditions: Mycobacterium tuberculosis
[14] = system: M. tuberculosis clinical isolate 4328; experiment: as above; format: cell-based; conditions: Mycobacterium tuberculosis
M. tuberculosis H37Rv [15] = format: in vivo, BALB/c mice; conditions: mouse, in vivo
[16] = system: M. tuberculosis clinical isolate 5253; experiment: Drug susceptibility testing on solid Löwenstein-Jensen medium; format: cell-based; conditions: Mycobacterium tuberculosis
M. bolletii 1999-0888 = experiment: MIC99 by REMA; format: cell-based
M. marinum strain E11 = experiment: Zebrafish embryo infection model, M. marinum strain E11; conditions: 25 nM for 5, 4 or 3 days
Protocol: The number of colony forming units (CFU) per embryo was determined and compared to the level of fluorescence.
Zebrafish embryos were infected with either M. marinum strain M (A, B) or E11 (C, D). […] The bacterial burden was assessed by fluorescence microscopy and customized software to quantify the number of fluorescent pixels (A and C), and by enumeration of the CFU in lysed embryos (B and D), immediately after imaging was performed. In B and D, each data point represents the mean number of CFU per embryo of 3 embryo extracts plated, the bars indicate means and s.e.m. after log transformation. […]
Volumes of 1 nl of bacterial suspension, containing 50-200 CFU were injected into the caudal vein of embryonic zebrafish at approximately 28 h post fertilization. At 5 days post infection, embryos were monitored using fluorescence microscopy (Leica MZ16FA). Brightfield and fluorescent images were generated with a Leica DFC420C camera and subsequently fluorescent images were analyzed with customized software to quantify infection levels.
Twelve infected embryos were incubated at 28°C in petri dishes of 4 cm diameter containing 4 ml sterilized egg water (60 μg/ml instant ocean sea salts) with 0.003% 1-phenyl-2-thiourea (Sigma) to prevent melanization. All drug treatment experiments were performed in egg water containing 1% DMSO and analyzed at 5 days post infection (dpi). […]

[17] = system: M. tuberculosis clinical isolate 6418; experiment: Drug susceptibility testing on solid Löwenstein-Jensen medium; format: cell-based; conditions: Mycobacterium tuberculosis
C. diphtheriae DSM 44123 = experiment: MIC99 by REMA; format: cell-based, Corynebacterium diphtheriae
C. glutamicum ATCC 13032 = experiment: MIC99 by REMA; format: cell-based, Corynebacterium glutamicum
[18] = mouse
M. massiliense 2005-0484 = experiment: MIC99 by REMA; format: cell-based
[19] = human
M. tuberculosis DprE1 = M. tuberculosis DprE1 (Mycobacterium tuberculosis, UniProt P9WJF1); experiment: DprE1 inhibition, two step peroxidase-coupled assay with Amplex Red; format: biochemical
M. tuberculosis MDR_CHUV = experiment: MIC99 by REMA; format: cell-based, Mycobacterium tuberculosis
[20] = system: M. tuberculosis clinical isolate 6341; experiment: Drug susceptibility testing on solid Löwenstein-Jensen medium; format: cell-based; conditions: Mycobacterium tuberculosis
M. smegmatis MN84 = format: cell-based; conditions: M. smegmatis MN84, DprE1 Cys394Ser
M. smegmatis MN47 = format: cell-based; conditions: M. smegmatis MN47, DprE1 Cys394Gly
[21] = Mycobacterium tuberculosis, H37RV

T1 sequence (A0R6D0 whole entry): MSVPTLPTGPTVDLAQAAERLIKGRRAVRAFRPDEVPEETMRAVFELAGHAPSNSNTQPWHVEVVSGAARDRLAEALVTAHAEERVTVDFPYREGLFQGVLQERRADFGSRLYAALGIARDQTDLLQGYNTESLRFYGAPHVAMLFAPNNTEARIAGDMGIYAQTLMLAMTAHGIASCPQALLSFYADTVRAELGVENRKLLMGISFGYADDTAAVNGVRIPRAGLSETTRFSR
Sequence of M. tuberculosis DprE1 (P9WJF1 whole entry, looked up): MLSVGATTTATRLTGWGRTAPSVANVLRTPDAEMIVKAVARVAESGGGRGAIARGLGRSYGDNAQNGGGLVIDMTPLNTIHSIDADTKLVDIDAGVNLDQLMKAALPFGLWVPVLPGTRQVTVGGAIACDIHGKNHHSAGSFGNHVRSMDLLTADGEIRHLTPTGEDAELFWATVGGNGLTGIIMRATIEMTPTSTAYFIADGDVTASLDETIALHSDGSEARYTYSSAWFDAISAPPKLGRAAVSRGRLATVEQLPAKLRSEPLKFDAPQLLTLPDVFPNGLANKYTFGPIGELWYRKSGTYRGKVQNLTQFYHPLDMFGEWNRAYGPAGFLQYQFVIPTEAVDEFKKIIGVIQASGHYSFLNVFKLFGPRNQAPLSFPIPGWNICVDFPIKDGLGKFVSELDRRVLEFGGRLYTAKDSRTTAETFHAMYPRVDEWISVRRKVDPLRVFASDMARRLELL

O=c1nc(N2CCN(CC3CCCCC3)CC2)sc2c([N+](=O)[O-])cc(C(F)(F)F)cc12 [PBTZ169]
microsomal CLint (in vitro [1]): 24.3 µL/min/mg | MIC [2]: 0.063 mg/L (≈ 0.138 µM) | MIC99 (M. smegmatis mc^2155; Mycolicibacterium smegmatis, MC^2155): 0.0007 mg/L (≈ 0.00153 µM) | time the serum level remains well above MIC (in vivo; female): > 21 h | Cmax (in vivo; female, po, 25 mg/kg): 1.85 µg/mL | half-life (in vivo; female, po, 25 mg/kg): 1.85 h | k el (in vivo; female, po, 25 mg/kg): 0.000104 s⁻¹ | AUC (in vivo; po, 25 mg/kg): 193487 µg·min/L | selectivity index (HepG2 human cell line; HepG2 cytotoxicity relative to MIC): > 10 000 | TD99 (HepG2 human cell line; human): > 200 µg/mL | MIC (M. tuberculosis H37Rv [3]; [21]): ≤ 0.00019 mg/L | MIC99 (M. tuberculosis H37Rv [3]; [21]): 0.0003 mg/L (≈ 0.000657 µM) | MIC (M. tuberculosis H37Rv [3]; Mycobacterium tuberculosis, H37RV, read-out: MIC M. tuberculosis): ≤ 0.00019 mg/L | MIC99 (M. avium ATCC 15769; Mycobacterium avium, ATCC15769): > 100 mg/L | bacterial burden in infected zebrafish embryos (fluorescence) (M. marinum strain M [4]): almost no bacteria were present | decrease in number of CFU per embryo (M. marinum strain M [4]): about 3 log units | effect on the infection in zebrafish embryos (M. marinum strain M [4]): no significant effect | MIC99 (M. bovis BCG BN2): >100 mg/L | fold increased resistance conferred by the Cys387Ser mutation in DprE1 (M. bovis BCG BN2): > 10 000 fold | developmental defects in zebrafish embryos (in words) (zebrafish embryos): no developmental defects were seen | MIC [5]: 0.063 mg/L (≈ 0.138 µM) | MIC [6]: 0.063 mg/L (≈ 0.138 µM) | MIC99 (M. vaccae ATCC 15483; Mycolicibacterium vaccae, ATCC15483): > 100 mg/L | MIC [7]: 0.031 mg/L (≈ 0.0679 µM) | ΣFIC (sum of the fractional inhibitory concentrations) (M. tuberculosis H37Rv [8]): 0.5 | MIC99 (M. abscessus 2005-0524; Mycobacteroides abscessus, 20050524): > 100 mg/L | MIC (M. smegmatis GM22; Mycolicibacterium smegmatis, GM22, read-out: MIC for GM22): 0.005 mg/L (≈ 0.011 µM) | MIC99 (M. smegmatis GM22; Mycolicibacterium smegmatis, read-out: MIC99): 0.003 mg/L (≈ 0.00657 µM) | MIC99 (M. marinum Strain M [9]; Mycobacterium marinum): 0.0003 mg/L (≈ 0.000657 µM) | NfnB-mediated reduction, species found by LC-MS [10]: the major species found in the LC-MS analysis was the original nitro form | MIC99 (M. bovis BCG Pasteur; Mycobacterium tuberculosis variant bovis BCG, BCG): 0.0006 mg/L (≈ 0.00131 µM) | microsomal CLint (in vitro [11]): 24.8 µL/min/mg | MIC (M. tuberculosis H37Rv [12]): 0.031 mg/L (≈ 0.0679 µM) | MIC [13]: 0.063 mg/L (≈ 0.138 µM) | MIC [14]: 0.063 mg/L (≈ 0.138 µM) | activity in dose escalation study (in words) (M. tuberculosis H37Rv [15]): active at all the concentrations tested | reduction of CFU in the lungs in comparison to BTZ043 at the same dose (M. tuberculosis H37Rv [15]): > 0.5 log | reduction of bacterial burden in the spleens, fold more than BTZ043 (M. tuberculosis H37Rv [15]): 10 fold | MIC [16]: 0.063 mg/L (≈ 0.138 µM) | MIC99 (M. bolletii 1999-0888; Mycobacteroides abscessus, 19990888): > 100 mg/L | decrease in number of CFU per embryo (M. marinum strain E11): ~2 log units | MIC [17]: 0.063 mg/L (≈ 0.138 µM) | MIC99 (C. diphtheriae DSM 44123; Corynebacterium diphtheriae, DSM44123): 0.003 mg/L (≈ 0.00657 µM) | MIC99 (C. glutamicum ATCC 13032; Corynebacterium glutamicum, ATCC13032): 0.013 mg/L (≈ 0.0285 µM) | clearance on incubation with microsomes (in words) [18]: medium clearance values | MIC99 (M. massiliense 2005-0484; Mycobacteroides abscessus, 20050484): > 100 mg/L | clearance on incubation with microsomes (in words) [19]: medium clearance values | concentration giving full inhibition of DprE1 (M. tuberculosis DprE1): 5 µM | MIC99 (M. tuberculosis MDR_CHUV; Mycobacterium tuberculosis): 0.0004 mg/L (≈ 0.000876 µM) | MIC [20]: 0.031 mg/L (≈ 0.0679 µM)

moxifloxicin [MXF]
MIC99 (M. smegmatis mc^2155): 0.06 mg/L | MIC99 (M. tuberculosis H37Rv [3]): 0.03 mg/L | MIC99 (M. avium ATCC 15769): 0.47 mg/L | MIC99 (M. bovis BCG BN2): 0.03 mg/L | MIC99 (M. smegmatis MN84): 0.06 mg/L | MIC99 (M. vaccae ATCC 15483): 0.63 mg/L | MIC99 (M. abscessus 2005-0524): 0.78 mg/L | MIC99 (M. smegmatis GM22): 0.06 mg/L | MIC99 (M. marinum Strain M [9]): 0.1 mg/L | MIC99 (M. bovis BCG Pasteur): 0.02 mg/L | MIC99 (M. bolletii 1999-0888): 0.94 mg/L | MIC99 (C. diphtheriae DSM 44123): 0.02 mg/L | MIC99 (C. glutamicum ATCC 13032): 0.31 mg/L | MIC99 (M. massiliense 2005-0484): 0.96 mg/L | MIC99 (M. smegmatis MN47): 0.06 mg/L | MIC99 (M. tuberculosis MDR_CHUV): 0.03 mg/L
